Laboratory results published in patent US20260286302A1, “METHODS FOR PRODUCING A SUPER CENTRAL MEMORY CD8 T CELL SUBTYPE BY POLY(ADP-RIBOSE) POLYMERASE (PARP) INHIBITION AND USES THEREOF” (Georgetown University, priority 2023, published 2026).

Assays:
human CD8 T cells = assay: In vitro-activated human CD8+ T cells, memory characteristics; format: cell-based; settings: anti-CD3/CD28 coupled beads for 72 h
Experimental: For evaluation of memory characteristics in human CD8+ T cells, naive CD8+ T cells were activated in the presence or absence of PARPi, by Dynabeads™ Human T-Activator CD3/CD28 (Thermo Fisher #11131), […]. Post-activation cells were gated upon CD8^+ T cell population and various characteristics were investigated as described in the Examples below.
A total of 0.1-0.2×10^6 cells per sample were stained for Live/Dead staining followed by fixation and permeabilization. For IFNγ and granzyme B (Gzm B) staining, BD Cytofix/Cytoperm (catalog no. 51-2090KZ) and BD Perm/Wash (catalog no. 51-2091KZ) buffer set were used according to the manufacturer's instructions (BD Pharmingen). CD8^+ T cells from tumor samples were stained similarly. Data acquisition was performed on a BD LSR II flow cytometer using the software FACS Diva v.9.0. Results were analyzed using FlowJo software (TreeStar). MitoFM, a green-fluorescent mitochondrial stain, which localizes to mitochondria, was used as described previously (Sukumar et al., Cell Metab 23 (1): 63-76, 2016).
To this end, human naïve CD8 T cells were activated with anti-CD3/CD28 coupled beads for 72 h.

pMel-1 CD8 T cells [1] = assay: RT-PCR gene expression in TCM^sup versus TCM; format: cell-based, mouse; settings: TCM^sup vs gp100-induced TCM
From the text: Total RNA was extracted from gp100 or gp100 plus PARPi-activated CD8 T cells using the RNeasy Mini Kit (Qiagen, catalog no. 74004) following the manufacturer's instructions. The extraction included a digestion step with DNase I to prevent subsequent amplification of genomic DNA. One μg total RNA was subjected to single-strand complementary DNA synthesis using High-Capacity cDNA Reverse Transcription Kit (Thermo Fisher, catalog no. 4368814). The Taqman® gene expression assay from Applied Biosystems was used for qrtPCR, and primer pairs (catalog no. 4331182) from Applied Biosystems were used to detect gene expression of Eomes (#Mm01351984-m1), Acot1 (#Mm0162271-S1), Cpt1a (#Mm0123183-m1), Klf2 (#Mm00500486-g1), CD62L (#Mm00441291-m1),CCR7 (#Mm99999130-s1), and Cdkn1b (#Mm00438168-m1). Data were procured using StepOnePlus Real-Time PCR System from Applied Biosystems and normalized to the geometric mean of the housekeeping gene beta-actin (β-actin) (#Mm02619580-g1).

B16F10 = assay: Tumor growth in immune deficient nude mice (B16F10); format: in vivo, mouse
Experimental: The effect of PARPi on direct CD8 T cell-driven anti-tumor immune response remains poorly understood. Therefore, to dissect this effect, the anti-tumor immune effect of PARPi was tested in vivo in tumor models that require T cell priming, which helps delineate the direct effect of the drug on CD8 T cells. […] While 18% and 10% of mice survived in the vaccine-treated and PARPi-treated groups, respectively, in the TC-1 tumor model at day 22, 90% survived when PARPi was added to the vaccine. Similarly, in the B16F10 tumor model, 10% of the mice treated with vaccine alone were alive at day 22, compared to 40% when PARPi was added.

WT CD8 T cells = WT CD8 T cells activated with anti-CD3/CD28; format: cell-based, mouse; settings: anti-CD3/CD28 activation in the presence of PARPi, 48 h
NAD = NAD accumulation assay; format: cell-based, mouse; settings: activated pMel-1 CD8 T cells, 48 h
Experimental: pMel-1 CD8 T cells were activated with gp100 in the presence or absence of PARPi for 48 h. Cells were washed with cold PBS and pelleted in a microcentrifuge tube by centrifuging at 2,000 rpm for 5 minutes. Cells were lysed with 400 μL of NADH/NAD extraction buffer and then centrifuged at 13,000 g for 10 minutes to remove insoluble material. The supernatants were collected and the levels of NAD in the cell lysates were estimated using the NAD/NADH Quantitation Kit according to the manufacturing kit (Millipore NAD/NADH Quantification Kit Sigma #MAK037).

pMel-1 CD8 T cells [2] = assay: Seahorse assays (OCR, ECAR); format: cell-based, mouse; settings: PARPi-induced TCM^sup vs gp100-induced TCM
Experimental: CD8 T cells were activated with gp100 peptide with/without PARPi for 48 h, followed by mitochondrial stress tests (SeaHorse Bioscience), performed as per the manufacturer's specifications. OCR and ECAR were measured with an XFp flux analyzer (Seahorse Bioscience). For all assays, 160,000 cell per ml were plated onto culture plates using Cell-Tak (BD Biosciences). OCR and ECAR were measured in unbuffered DMEM (Agilent Biotechnologies) supplemented with 10 mM D-glucose (Sigma-Aldrich), 10 mM L-glutamine and 2.5 mM pyruvate, as indicated. The rates of FAO were determined in variously treated cells, as described above, using a Seahorse XF Palmitate-BSA FAO Reagent kit, used according to the manufacturer's instructions (Agilent Biotechnologies).

SIRT-1/FOXO1 = SIRT-1/FOXO1 signaling, Western blot and immunofluorescence; format: cell-based, mouse
Experimental: pMel-1 CD8 T cells were activated with gp100 in the presence or absence of PARPi for 48 h containing glass coverslips. Cells were then washed with PBS (Mg^+ca^+), fixed for 5 min with 4% PFA and permeabilized in PBS/triton 1×. […] Finally, DAPI staining was applied. Images were acquired with a Leica TCS-SP5II upright confocal microscope (Leica Microsystems).

pMel-1 CD8 T cells [3] = format: cell-based
Experimental: For ACT experiments, CD8+ T cells from pMel-1 mice were activated with gp100 peptide with and without PARPi for 48 h. Based on their CD44 and CD62L expression, cells were sorted by FACS and transferred into 9-day-old B16F10 melanoma-bearing mice tumor-bearing mice (1×10^6 cells per mouse). Tumor growth and survival of mice were monitored.
A total of 0.1-0.2×10^6 cells per sample were stained for Live/Dead staining followed by fixation and permeabilization. […] CD8^+ T cells from tumor samples were stained similarly. Data acquisition was performed on a BD LSR II flow cytometer using the software FACS Diva v.9.0. Results were analyzed using FlowJo software (TreeStar). […]

O=C(c1cc(Cc2n[nH]c(=O)c3ccccc23)ccc1F)N1CCN(C(=O)C2CC2)CC1 [olaparib]
IFNγ expression (human CD8 T cells): significant increase
number of CD45ROhiCCR7hi cells (human CD8 T cells): significant increase
number of CD45ROhiCD62Lhi cells (human CD8 T cells): significant increase
FOXO1-regulated memory genes (Cd62l, Klf2, Tcf7, Ccr7) (pMel-1 CD8 T cells [1]): upregulated
expression of Acot1 and Cpt1α (pMel-1 CD8 T cells [1]): significantly higher
tumor growth (B16F10): did not affect tumor growth
generation of the CD44hiCD62Lhi population (WT CD8 T cells): also seen
accumulation of NAD (NAD): significantly enhanced
extracellular acidification rate (ECAR; Glycolysis) (pMel-1 CD8 T cells [2]): decrease
oxygen consumption rate (OCR; OXPHOS) (pMel-1 CD8 T cells [2]): significant increase
FOXO1 acetylation (SIRT-1/FOXO1; PARPi-treated CD8 T cells): decrease
SIRT-1 expression and activity (SIRT-1/FOXO1; activated pMel-1 CD8 T cells): increased
FOXO1 in the nucleus (SIRT-1/FOXO1; immunofluorescence and Western blot, compared to gp100-activated cells): increase in accumulation and expression
FOXO1 phosphorylation (SIRT-1/FOXO1; total lysate): significant reduction
toxicity (percentage of live cells) (pMel-1 CD8 T cells [3]; 48 h time point): did not show any significant toxicity
phenotype of CD44intCD62Lint intermediate population (pMel-1 CD8 T cells [3]; 96 h after PARPi treatment): shifted more toward CD44^hiCD62L^hi population
expression of memory markers Eomes, CCR7 and Bcl2 (pMel-1 CD8 T cells [3]; CD44hiCD62Lhi population compared to TCM, 48 h): significantly increased
mitochondrial mass (MitoFM) (pMel-1 CD8 T cells [3]; TCM^sup cells): increase
PGC1α expression (pMel-1 CD8 T cells [3]; TCM^sup cells vs TCM from gp100): increase
level of γH2AX (pMel-1 CD8 T cells [3]; activated pMel-1 CD8 T cells): increase
IFNγ and Gzm B in PARPi-induced CD44hiCD62Lhi cells (pMel-1 CD8 T cells [3]; compared to TCM, 48 h): significantly higher
IFNγ and Gzm B expression on activated CD8 T cells (pMel-1 CD8 T cells [3]; compared to gp100 alone, 48 h): significant increase
cell cycle (pMel-1 CD8 T cells [3]; gp100-activated, 48 h): arrested in the G2/M phase
proliferation capacity (Ki67) (pMel-1 CD8 T cells [3]; gp100-activated, 48 h): significantly reduced
percentage of CD44hiCD62Lhi TCM CD8 T cell population (pMel-1 CD8 T cells [3]; gp100-activated, 48 h of treatment, for PARPi concentration-dependent): increase
